Series [1] concerns laminin-332 production in HaCaT cells. The series can be described thus: Laminin-332 concentration in HaCaT culture supernatant after addition of various amino acids, Example 2. The format is cell-based, human. Conditions: for stimulation of the production of laminin-332 (in words) / concentration of laminin-332 in the culture supernatant: HaCaT cells; for stimulation of the production of laminin-332 (in words): 10 nM, 100 nM, 1000 nM; for concentration of laminin-332 in the culture supernatant: 24 hours, negative control 1.5-1.8 ng/mL; for effect on stimulating production of laminin-332 (conclusion in words): Examples 1 and 2, KC and HaCaT cells. The protocol:
(§1) After completing the cell culture, culture medium was collected and centrifuged at 3000 rpm for five minutes. Concentration of laminin-332 in the supernatant was measured by ELISA (Amano, S., et al., J. Immunol. Methods, 224:161 (1999)). The ELISA used was sandwich type which utilizes biotinylated conjugate of BM165, i.e., a monoclonal antibody against α (alpha) 3 chain of laminin-5, and 6F12, i.e., a monoclonal antibody against β (beta)3 chain of laminin-5, and detection was carried out by utilizing avidin D labeled with a horseradish peroxidase (Vector Laboratories, Catalogue No. A-2004). PBS was used as a control.
Cell culture was carried out in the same manner as the Example 1 by using HaCaT cells. After that, the medium was switched to the standard medium added with amino acids such as L- or D-alanine, L- or D-hydroxyproline, L- or D-aspartic acid, L- or D-asparagine, L- or D-proline, or L- or D-serine with the concentration of 10 nM, 100 nM, or 1000 nM, and cultured for 24 hours. The standard medium to which no amino acid had been added was used as a negative control. […] The production amount of laminin-332 was measured in the same manner as the Example 1.
The vertical line of the graph in FIG. 7 represents the concentrations (ng/mL) of laminin-332 in the culture supernatant in each well. The error bars for each experimental condition indicate the standard deviations of experimentally measured values obtained by repeating the experiment four times under the identical condition.

The test system of a further series is KC cells. Description: Quantification of number of viable KC cells (alamarBlue). The format is cell-based, human. To be noted: for relative fluorescence intensity of alamarBlue: 1 μM, 24 hours, negative control 50; for cytotoxicity against KC cells: alamarBlue, no significant difference to negative control by Tukey-Kramer's test. The protocol:
(§2) Human epidermal-derived HaCaT cells (H. Hans, et al., Experimental Cell Research, 239:399 (1998)) and human keratinocyte-derived KC cells (Sanko Junyaku Co., Ltd., manufacturer: LONZA Walkersville Inc.) were used. The cells were inoculated to a 24-well plate to have 4×10^4 cells per well. The cells were then cultured for 24 hours in a medium for cell culture (D-MEM (1 g/L glucose), manufactured by Wako Pure Chemical Industries, Ltd.) to which 0.1% bovine serum albumin (BSA) is supplemented (hereinafter, referred to as a “standard medium”) in a 5% CO2 and saturated water vapor atmosphere at 37° C. (degrees Celsius).
(§3) D-hydroxyproline used in this example was 4-cis-D-hydroxyproline.
(§4) After collecting the culture medium, the cells were washed with PBS and added with alamarBlue (trademark: Biosource International, Inc.) to have final concentration of 10%. Two hours later, according to the methods by Ahmed S. A. et al., (J. Immunol. Method., 170, 211-224 (1994)) and the instructions provided by the manufacturer, fluorescent intensity of the alamarBlue solution was measured with excitation wavelength of 544 nm and emission wavelength of 590 nm.
For orientation: The colour change of resazurin is a common sign of viable cells or microbes.

Series [2] relates to laminin-332 production in KC cells. Description: Laminin-332 production in KC cells (sandwich ELISA of culture supernatant, relative to cell number). It is filed as cell-based, human. Conditions: 1 μM; for relative value of laminin-332 concentration compared to the number of cells: 24 hours, negative control 0.35. The protocol: as §2, §3
PBS was used as a control.
as §4

The test system of another series is HaCaT cells. Description: Quantification of number of viable HaCaT cells (alamarBlue). Conditions: for fluorescence intensity of alamarBlue: 1 μM. The protocol: as §2, §3, §4
Series [3] relates to laminin-332 production in HaCaT cells. Description: Laminin-332 production in HaCaT cells (sandwich ELISA, relative to cell number), Example 1. It is filed as cell-based, human. Conditions: 1 μM; for relative value of laminin-332 concentration compared to the number of cells: 24 hours, negative control 0.04. The protocol:
as §1
The vertical line of the graph in FIG. 5 represents, the relative values of laminin-332 concentration compared to the number of cells that are present in culture supernatant in each well. The error bars for each experimental condition indicate the standard deviations of experimentally measured values obtained by repeating the experiment three times under the identical condition.
Background: ELISA stands for enzyme-linked immunosorbent assay.

Setting [4] is: HaCaT cells, 24 hours, negative control 300.
Setting [5] is: HaCaT cells, alamarBlue, no significant difference to negative control by Tukey-Kramer's test.

Read-outs that look alike come from different tables or passages of the source.

With `N[C@H](CC(=O)O)C(=O)O` [D-aspartic acid], the “stimulation of the production of laminin-332 (in words)” value in series [1] is listed as “do not stimulate the production of laminin-332”. The “concentration of laminin-332 in the culture supernatant” value in series [1] (amino acid 10 nM) stood at 1.9 ng/mL; in series [1] (amino acid 100 nM), 1.9 ng/mL; in series [1] (amino acid 1000 nM) it was 1.7 ng/mL.

`C[C@@H](N)C(=O)O` [D-alanine]: the “relative fluorescence intensity of alamarBlue” value in the series on KC cells was found to be 45. In the series with KC cells, the “cytotoxicity against KC cells” value is “no cytotoxicity”. Besides, the results for the “relative value of laminin-332 concentration compared to the number of cells” value (“relative value” for short) in series [2] and in series [3] were 0.50 and 0.11, respectively. For the same compound, the “stimulation of laminin-332 production in KC cells (in words)” value in series [2] (p less than 1% vs negative control by Tukey-Kramer's test) is on record as “stimulated production of laminin-332”. The “cytotoxicity for HaCaT cells” value in the series with HaCaT cells is on record as “no cytotoxicity”. Besides, the “fluorescence intensity of alamarBlue” value in the series on HaCaT cells (human, 24 h) came to 250. The “stimulation of laminin-332 production in HaCaT cells (in words)” value in series [3] (p less than 1% vs negative control by Scheffe's F test) is reported as “stimulated production of laminin-332”. Besides, the “effect on stimulating production of laminin-332 (conclusion in words)” value in series [1] was “effect on stimulating production of laminin-332 was observed”. Also, the “concentration of laminin-332 in the culture supernatant” value in series [1] (amino acid 10 nM) amounted to 1.7 ng/mL; in series [1] (amino acid 100 nM) it was 3.4 ng/mL; in series [1] (amino acid 1000 nM), 4.8 ng/mL.

On to `O=C(O)[C@@H]1CCCN1` [L-proline], for which the “stimulation of the production of laminin-332 (in words)” value in series [1] is reported as “do not stimulate the production of laminin-332”. The “concentration of laminin-332 in the culture supernatant” value in series [1] (amino acid 10 nM) is reported as 1.8 ng/mL; in series [1] (amino acid 100 nM), 1.9 ng/mL; in series [1] (amino acid 1000 nM), 1.9 ng/mL.

On to `N[C@@H](CC(=O)O)C(=O)O` [L-aspartic acid], for which the “stimulation of the production of laminin-332 (in words)” value in series [1] is reported as “do not stimulate the production of laminin-332”. Further, the “concentration of laminin-332 in the culture supernatant” value worked out at 1.8 ng/mL in series [1] (amino acid 10 nM), 1.8 ng/mL in series [1] (amino acid 100 nM) and 2.0 ng/mL in series [1] (amino acid 1000 nM).

With `C[C@H](N)C(=O)O` [L-alanine], the “relative fluorescence intensity of alamarBlue” value in the series on KC cells is reported as 40. The “cytotoxicity against KC cells” value in the series with KC cells is on record as “no cytotoxicity”. Besides, the figures for the “relative value” value in series [2] and in series [3] were 0.40 and 0.07, respectively. For the same compound, the “cytotoxicity for HaCaT cells” value in the series on HaCaT cells is “no cytotoxicity”. The “fluorescence intensity of alamarBlue” value with HaCaT cells (human, 24 h) is on record as 250. The “concentration of laminin-332 in the culture supernatant” value is listed as 1.7 ng/mL in series [1] (amino acid 10 nM), 2.3 ng/mL in series [1] (amino acid 100 nM) and 2.8 ng/mL in series [1] (amino acid 1000 nM).

Consider `O=C(O)[C@H]1CCCN1` [D-proline], for which the “stimulation of the production of laminin-332 (in words)” value in series [1] is “do not stimulate the production of laminin-332”. The “concentration of laminin-332 in the culture supernatant” value was determined as 2.0 ng/mL in series [1] (amino acid 10 nM), 1.9 ng/mL in series [1] (amino acid 100 nM) and 1.9 ng/mL in series [1] (amino acid 1000 nM).

Turning to `O=C(O)[C@H]1C[C@@H](O)CN1` (relative stereo) [D-hydroxyproline, 4-cis-D-hydroxyproline], the “fluorescence intensity of alamarBlue” value with HaCaT cells (setting [4]) is 280. Also, in the series on HaCaT cells (setting [5]), the “cytotoxicity for HaCaT cells” value is reported as “no cytotoxicity”. In addition, in series [3], the “relative value” value came to 0.065. Also, the “effect on stimulating production of laminin-332 (conclusion in words)” value in series [1] is listed as “effect on stimulating production of laminin-332 was observed”. Further, the “concentration of laminin-332 in the culture supernatant” value is on record as 1.5 ng/mL in series [1] (amino acid 10 nM), 3.3 ng/mL in series [1] (amino acid 100 nM) and 4.4 ng/mL in series [1] (amino acid 1000 nM).

For the compound `N[C@H](CO)C(=O)O` [D-serine], the “stimulation of the production of laminin-332 (in words)” value in series [1] was “do not stimulate the production of laminin-332”. Besides, the “concentration of laminin-332 in the culture supernatant” value in series [1] (amino acid 10 nM), in series [1] (amino acid 100 nM) and in series [1] (amino acid 1000 nM) was 1.8 ng/mL in each case.

For `N[C@@H](CO)C(=O)O` [L-serine], the “stimulation of the production of laminin-332 (in words)” value in series [1] is “do not stimulate the production of laminin-332”. For the same compound, the “concentration of laminin-332 in the culture supernatant” value in series [1] (amino acid 10 nM) was 1.8 ng/mL; in series [1] (amino acid 100 nM) it was 1.9 ng/mL; in series [1] (amino acid 1000 nM) it was 1.9 ng/mL.

Consider `NC(=O)C[C@H](N)C(=O)O` [L-asparagine], for which the “stimulation of the production of laminin-332 (in words)” value in series [1] was “do not stimulate the production of laminin-332”. The “concentration of laminin-332 in the culture supernatant” value in series [1] (amino acid 10 nM) stood at 1.6 ng/mL; in series [1] (amino acid 100 nM), 1.5 ng/mL; in series [1] (amino acid 1000 nM) it was 1.6 ng/mL.

On to `NC(=O)C[C@@H](N)C(=O)O` [D-asparagine], for which the “stimulation of the production of laminin-332 (in words)” value in series [1] is “do not stimulate the production of laminin-332”. Further, the “concentration of laminin-332 in the culture supernatant” value in series [1] (amino acid 10 nM), in series [1] (amino acid 100 nM) and in series [1] (amino acid 1000 nM) was 1.5 ng/mL each time.

Turning to `O=C(O)[C@@H]1C[C@@H](O)CN1` [L-hydroxyproline], the “fluorescence intensity of alamarBlue” value in the series on HaCaT cells (setting [4]) was 280. Also, the “cytotoxicity for HaCaT cells” value in the series on HaCaT cells (setting [5]) was “no cytotoxicity”. Further, the “relative value” value in series [3] is 0.05. In addition, the “concentration of laminin-332 in the culture supernatant” value is reported as 1.5 ng/mL in series [1] (amino acid 10 nM), 2.3 ng/mL in series [1] (amino acid 100 nM) and 2.7 ng/mL in series [1] (amino acid 1000 nM).
